Consider 15 molecules from patent US20150189882A1, “ACTIVE INGREDIENT COMBINATIONS HAVING INSECTICIDAL AND ACARICIDAL PROPERTIES” (priority 2011, published 2015).

Like-named read-outs stand apart in the source and are kept apart here.

Data set [1] concerns Phaedon cochleariae larvae.
The test system of another data set is Spodoptera frugiperda. As to the kind of experiment: Spodoptera frugiperda - spray application. Type of data set: in vivo. The following applies: for mortality at 4 g/ha: 4 g ai/ha; for mortality at 20 g/ha: 20 g ai/ha. As to the method: To produce a suitable preparation of active compound, 1 part by weight of active compound is mixed with the stated amount of solvent and emulsifier, and the concentrate is diluted with emulsifier-containing water to the desired concentration. To produce a suitable preparation of a biological suspension the cells, viruses or spores are diluted with emulsifier-containing water to the desired concentration.
Cabbage (Brassica oleracea) leaf-discs are sprayed with a preparation of the active ingredient at the desired concentration. Once dry, the leaf discs are infested with larvae of the fall army worm (Spodoptera frugiperda).
After the specified period of time, mortality in % is determined. 100% means that all the caterpillars have been killed; 0% means that none of the caterpillars have been killed. The mortality values thus determined are recalculated using the Colby-formula.

Data set [2] relates to Tetranychus urticae (OP-resistant). As to the kind of experiment: Tetranychus urticae - test (OP-resistant), French bean leaf discs. The class given is in vivo. As to the method:
To produce a suitable preparation of active compound, 1 part by weight of active compound is mixed with the stated amount of solvent and emulsifier, and the concentrate is diluted with emulsifier-containing water to the desired concentration. To produce a suitable preparation of a biological suspension the cells or spores are diluted with emulsifier-containing water to the desired concentration.
Leaf discs of French beans (Phaseolus vulgaris) infected with all instars of the Two-spotted spider mite (Tetranychus urticae), are sprayed with a preparation of the active ingredient at the desired concentration.
After the specified period of time mortality in % is determined. 100% means that all spider mites have been killed; 0% means that none of the spider mites have been killed.

Data set [3] deals with Myzus persicae. As to the kind of experiment: whole plant or invertebrate. The following applies: in Brassica rapa, foliar.
For data set [4], the system named is Tetranychus urticae (OP-resistant). Put plainly: Tetranychus urticae - test; OP-resistant (TETRUR), bean plants sprayed. Type of data set: in vivo. As to the method: To produce a suitable preparation of active compound, 1 part by weight of active compound is mixed with the stated amount of solvent and emulsifier, and the concentrate is diluted with emulsifier-containing water to the desired concentration Ammonium salt and/or penetration enhancer in a dosage of 1000 ppm are added to the desired concentration if necessary. To produce a suitable preparation of a biological suspension the cells or spores are diluted with emulsifier-containing water to the desired concentration.
Bean plants (Phaseolus vulgaris) which are heavily infested with all stages of the two-spotted spider mite (Tetranychus urticae) are treated by being sprayed with the preparation of the active compound of the desired concentration.
After the specified period of time, mortality in % is determined 100% means that all the spider mites have been killed; 0% means that none of the spider mites have been killed.

Data set [5] has as its system soybean (Glycine max). Put plainly: Seed treatment - germination test soybean. The following applies: 0.15 g ai/kg seeds. The class given is in vivo. As to the method:
Seeds of soybean (Glycine max) were treated by being mixed with the desired amount of active compound and spores and water. After drying, 25 seeds were sown into each pot filled with sandy loam.
After the specified period of time the level of activity expressed in % was determined. The level of activity was calculated on the basis of the number of soybean plants which have successfully germinated.

The test system of data set [6] is soybean (Glycine max). Put plainly: Shoot weight - soybean (seed treatment). Type of data set: in vivo. The following applies: 0.3 g ai/kg seeds. As to the method: Seeds of soybean (Glycine max) were treated by being mixed with the desired amount of active compound and spores and water. After drying, each seed was sown into a pot filled with loamy sand. The pots were placed in the greenhouse with conditions appropriate for good plant growth.
After the specified period of time the plants were harvested and the shoot weight of the plants was determined. The weight is expressed in % whereupon the weight of the control is set 100%.

For data set [7], the system named is Phaedon cochleariae larvae. Put plainly: whole plant or invertebrate.
In data set [8] the test system is Myzus persicae.
Setting [9] is: Spodoptera frugiperda, read-out: Mortality in % after 2^d.
Setting [10] is: read-out: Mortality in % after 1^d.
Setting [11] is: Spodoptera frugiperda, read-out: Mortality in % after 6^d.
[12] abbreviates: read-out: Mortality in % after 6^d.
Where [13] appears, read: read-out: Mortality in % after 2^d.

On to Lepimectin, for which the “Mortality in % after 2^d” value in data set [1] (4 g ai/ha) amounted to 50%.

As for `CC1(C)C(C=C(Cl)Cl)C1C(=O)OC(C#N)c1ccc(F)c(Oc2ccccc2)c1` (stereo not drawn) [Beta-Cyfluthrin, beta-Cyfluthrin], the “Mortality in % after 6^d” value is recorded as 83% in the data set with Spodoptera frugiperda (0.8 g ai/ha) and 50% in [1] (0.8 g ai/ha).

For the molecule `CCOP(=S)(OCC)Oc1nc(Cl)c(Cl)cc1Cl` [Chlorpyrifos], the mortality (as a rule, the share of the test organisms that died) at 100 g/ha with Spodoptera frugiperda (setting [9]) was 50%. In addition, the mortality at 4 g/ha in data set [2] (Tetranychus urticae, foliar, read-out: Mortality in % after 2^d) was found to be 0%; in the data set on Myzus persicae [3] (setting [10]), 70%.

With Emamectin benzoate [Emamectin-benzoate], the “Mortality in % after 2^d” value in data set [1] (0.8 g ai/ha) was 67%.

`Cc1cc(F)c(-n2nc(C(F)(F)F)nc2N)cc1[S+]([O-])CC(F)(F)F` (racemic) [Compound (I)]: the mortality at 0.8 g/ha in the data set with Spodoptera frugiperda (Spodoptera frugiperda, 0.8 g ai/ha, read-out: Mortality in % after 6^d) came out at 0%; in data set [7] (setting [13]), 0%. Also, the mortality at 4 g/ha turned out to be 0% in the data set on Spodoptera frugiperda (setting [9]); 0% with Spodoptera frugiperda (setting [11]); 30% in data set [2] (Tetranychus urticae, foliar, 4 g ai/ha, read-out: Mortality in % after 2^d); 30% in data set [2] (Tetranychus urticae, foliar, 4 g ai/ha, read-out: Mortality in % after 6^d); 0% in the data set on Myzus persicae [3] (setting [10]); 0% in the data set on Myzus persicae [3] (setting [12]). Moreover, the mortality at 4 g/ha in data set [7] (setting [13]) and in data set [7] (setting [12]) was 0% each time. In addition, the mortality at 20 g/ha in the data set with Spodoptera frugiperda (setting [9]) amounted to 0%; in the data set with Spodoptera frugiperda (setting [11]), 0%; in data set [2] (Tetranychus urticae, foliar, 20 g ai/ha, read-out: Mortality in % after 2^d), 80%; in the data set with Myzus persicae [3] (setting [10]), 0%; with Myzus persicae [3] (setting [12]), 0%; in [7] (setting [13]), 0%. Besides, the mortality at 20 g/ha in data set [7] (setting [12]) was found to be 0%. Moreover, the mortality at 100 g/ha was determined as 0% in the data set with Spodoptera frugiperda (Spodoptera frugiperda, 100 g ai/ha, read-out: Mortality in % after 2^d); 0% in the data set with Spodoptera frugiperda (Spodoptera frugiperda, 100 g ai/ha, read-out: Mortality in % after 6^d); 0% in the data set with Myzus persicae [3] (setting [10]); 0% in the data set on Myzus persicae [3] (setting [12]); 0% in [7] (setting [13]); 0% in data set [7] (setting [12]). The mortality at 0.8 ppm in data set [4] (read-out: Mortality in % after 3^d) and in data set [4] (read-out: Mortality in % after 5^d) was 40% throughout. Moreover, the “% Germination after 3 days control was set 100%” value in the data set with soybean (Glycine max) [5] was found to be 97%. Besides, the “Shoot weight after 21 days control was set 100%” value with soybean (Glycine max) [6] was 98%.

Regarding `CN/C(=N\[N+](=O)[O-])NCc1cnc(Cl)s1` [Clothianidin], the mortality at 20 g/ha with Myzus persicae [3] (setting [10]) was 0%; in data set [7] (setting [12]), 83%.

`O=C1C=C(N(Cc2ccc(Cl)nc2)CC(F)F)CO1` [Flupyradifurone]: the “Mortality in % after 2^d” value was 0% in [2] (0.8 g ai/ha) and 50% in [1] (500 g ai/ha). Besides, the “Mortality in % after 1^d” value in the data set with Myzus persicae [8] (20 g ai/ha) came to 70%.

For `CC1=NNC(=O)N(/N=C/c2cccnc2)C1` [Pymetrozine], the mortality at 4 g/ha with Myzus persicae [3] (setting [12]) was found to be 0%.

Regarding `CN/C(=N/CC1CCOC1)N[N+](=O)[O-]` (stereo not drawn) [Dinotefuran], the mortality at 20 g/ha (in the data set on Myzus persicae [3] (setting [10]); in data set [7] (setting [12])) was 0% in each case.

`CC1(C)[C@H](C(=O)O[C@H](C#N)c2cccc(Oc3ccccc3)c2)[C@@H]1/C=C(\Cl)C(F)(F)F` (racemic) [Lambda-Cyhalothrin, lambda-Cyhalothrin]: the mortality at 0.16 g/ha came out at 33% with Spodoptera frugiperda (Spodoptera frugiperda, 0.16 g ai/ha, read-out: Mortality in % after 6^d) and 0% in the data set with Myzus persicae [3] (setting [12]). For the same molecule, the mortality at 0.8 g/ha in [7] (setting [13]) came out at 67%.

Regarding Milbemectin, the “Mortality in % after 6^d” value is recorded as 0% in the data set with Spodoptera frugiperda (0.8 g ai/ha) and 70% with Myzus persicae [8] (4 g ai/ha).

As to `C/C=C(\C)C(=O)O[C@H]1C[C@@H](OC(C)=O)[C@@]2(C(=O)OC)CO[C@H]3[C@@H](O)[C@@](C)([C@]45O[C@@]4(C)[C@H]4C[C@@H]5O[C@@H]5OC=C[C@@]54O)[C@H]4[C@]1(CO[C@]4(O)C(=O)OC)[C@@H]32` [Azadirachtin], the mortality at 100 g/ha in [2] (Tetranychus urticae, foliar, 100 g ai/ha, read-out: Mortality in % after 2^d) came to 0%; with Myzus persicae [3] (setting [12]), 0%.

Take `O=[N+]([O-])NC1=NCCN1Cc1ccc(Cl)nc1` [Imidacloprid]: the mortality at 0.8 g/ha came to 0% in data set [2] (Tetranychus urticae, foliar, 0.8 g ai/ha, read-out: Mortality in % after 2^d) and 0% in the data set on Myzus persicae [3] (setting [10]). The mortality at 20 g/ha in [7] (setting [12]) stood at 0%.

As for `CNC(=O)c1cc(Cl)cc(C)c1NC(=O)c1cc(Br)nn1-c1ncccc1Cl` [Chloranthraniliprole, Chlorantraniliprole], the mortality at 4 g/ha with Myzus persicae [3] (setting [12]) stood at 80%. In data set [7] (setting [12]), the mortality at 0.8 g/ha is 33%.

`CC(c1ccc(C(F)(F)F)nc1)S(C)(=O)=NC#N` (stereo not drawn) [Sulfoxaflor]: the mortality at 0.16 g/ha amounted to 0% in [2] (Tetranychus urticae, foliar, 0.16 g ai/ha, read-out: Mortality in % after 2^d) and 0% with Myzus persicae [3] (setting [10]). Moreover, the mortality at 4 g/ha in data set [7] (setting [12]) amounted to 0%.
